# Results published in US12202805B2, “Process for preparing (5S)-{[2-(4-carboxyphenyl)ethyl] |2-(2-{|3-chloro-4'-(trifluoromethyl)biphenyl-4-yl]methoxy}phenyl)ethyl]aminol-5,6,7,8-tetrahydroquinoline-2-carboxylic acid and its crystalline forms for use as pharmaceutically active compound” (Bayer Aktiengesellschaft, priority 2021, dated 2025).
# Several values for one entry are separate records, joined by “and”; a condition that tells them apart may be missing. Equal entries are not always repeated.
# System: thromboxane A2 challenged PAH-minipig
# Assay: Haemodynamics in the anesthetized thromboxane challenged minipig, intratracheal dry powder (PAP, BP)
# Type: in vivo, Göttingen Minipigs
# Conditions: for BP (absolute values) / PAP (absolute values): lactose vehicle first, test powder 1.5 mg/4 kg i.t. @90 min, each animal (n=3); for % changes vs. baseline on PAP: baseline 100.0 at 80 min, i.t. dry powder, each animal
# Experimental: Healthy Göttingen Minipigs® Ellegaard (Ellegaard, Denmark) of both sexes and having a weight of 2-6 kg were used. The animals were sedated by i.m. administration of about 25 mg/kg ketamine and about 10 mg/kg azaperone. Anaesthesia was initiated by i.v. administration of about 2 mg/kg ketamine and about 0.3 mg/kg midazolam. Maintenance of anaesthesia was by i.v. administration of about 7.5-30 mg/kg/h ketamine and about 1-4 mg/kg/h midazolam (rate of infusion 1-4 ml/kg/h) and about 150 μg/kg/h pancuronium bromide (for example Pancuronium-Actavis). After intubation, the animals were ventilated by the ventilator at a constant respiratory volume (10-12 ml/kg, 35 breaths/min; Avea®, Viasys Healthcare, USA, or Engström Carestation, GE Healthcare, Freiburg, Germany) such that an end-tidal CO2 concentration of about 5% was achieved. Ventilation was performed with room air, enriched with about 40% oxygen (normoxia). For the measurement of the haemodynamic parameters such as pulmonary arterial pressure (PAP), blood pressure (BP) and heart rate (HR), catheters were inserted into the carotid artery to measure the blood pressure, and a Swan-Ganz® catheter was introduced in a flow-directed manner via the jugular vein into the pulmonary artery. The haemodynamic signals were recorded and evaluated by means of pressure transducers (Combitransducer, B. Braun, Melsungen, Germany)/amplifiers and Ponemah® as data acquisition software.
# As reference pure Lactose vehicle was applied in the beginning of each experiment.
# [1] = time 150 min, listed as ex. 6e, sesquihydrate
# [2] = time 160 min, listed as ex. 6e, sesquihydrate
# [3] = time 170 min, listed as ex. 6e, sesquihydrate
# [4] = time 180 min, listed as ex. 6e, sesquihydrate
# [5] = time 190 min, listed as ex. 6e, sesquihydrate
# [6] = time 200 min, listed as ex. 6e, sesquihydrate
# [7] = time 210 min, listed as ex. 6e, sesquihydrate
# [8] = time 220 min, listed as ex. 6e, sesquihydrate
# [9] = time 230 min, listed as ex. 6e, sesquihydrate
# [10] = time 240 min, listed as ex. 6e, sesquihydrate
# [11] = time 250 min, listed as ex. 6e, sesquihydrate
# [12] = time 260 min, listed as ex. 6e, sesquihydrate
# [13] = time 270 min, listed as ex. 6e, sesquihydrate
# [14] = time 280 min, listed as ex. 6e, sesquihydrate
# [15] = time 290 min, listed as ex. 6e, sesquihydrate
# [16] = time 300 min, listed as ex. 6e, sesquihydrate
# [17] = time 310 min, listed as ex. 6e, sesquihydrate
# [18] = time not given, 1st row after 310 min, listed as ex. 6e, sesquihydrate
# [19] = time not given, 2nd row after 310 min, listed as ex. 6e, sesquihydrate
# [20] = time −10 min, 375 μg/kg i.t., sesquihydrate
smiles,measurement,setting,value
"O.O.O.O=C(O)c1ccc(CCN(CCc2ccccc2OCc2ccc(-c3ccc(C(F)(F)F)cc3)cc2Cl)[C@H]2CCCc3nc(C(=O)O)ccc32)cc1.O=C(O)c1ccc(CCN(CCc2ccccc2OCc2ccc(-c3ccc(C(F)(F)F)cc3)cc2Cl)[C@H]2CCCc3nc(C(=O)O)ccc32)cc1 [example 6e, (5S)—{[2-(4-Carboxyphenyl)ethyl][2-(2-{[3-chloro-4′-(trifluoromethyl)biphenyl-4-yl]methoxy}phenyl)-ethyl]amino}-5,6,7,8-tetrahydroquinoline-2-carboxylic acid sesquihydrate]",BP (absolute values),time 150 min,99 mmHg
same,BP (absolute values),[1],121 mmHg and 114 mmHg
same,PAP (absolute values),[1],30.3 mmHg and 29.0 mmHg and 26.6 mmHg
same,% changes vs. baseline on PAP,"time 160 min, sesquihydrate",71.0% and 79.5% and 65.9%
same,BP (absolute values),time 160 min,100 mmHg
same,BP (absolute values),[2],122 mmHg and 114 mmHg
same,PAP (absolute values),[2],29.0 mmHg and 30.3 mmHg and 26.9 mmHg
same,% changes vs. baseline on PAP,"time 170 min, sesquihydrate",68.5% and 74.3% and 61.5%
same,BP (absolute values),[3],101 mmHg and 121 mmHg and 115 mmHg
same,PAP (absolute values),[3],28.0 mmHg and 28.3 mmHg and 25.1 mmHg
same,% changes vs. baseline on PAP,"time 180 min, sesquihydrate",63.2% and 80.8% and 62.0%
same,BP (absolute values),time 180 min,99 mmHg
same,BP (absolute values),[4],119 mmHg and 115 mmHg
same,PAP (absolute values),[4],25.8 mmHg and 30.8 mmHg and 25.3 mmHg
same,% changes vs. baseline on PAP,"time 190 min, sesquihydrate",61.5% and 80.8% and 58.6%
same,BP (absolute values),time 190 min,99 mmHg
same,BP (absolute values),[5],123 mmHg and 114 mmHg
same,PAP (absolute values),[5],30.8 mmHg and 23.9 mmHg
same,% changes vs. baseline on PAP,"time 200 min, sesquihydrate",62.3% and 80.3% and 60.2%
same,BP (absolute values),time 200 min,98 mmHg
same,BP (absolute values),[6],116 mmHg and 113 mmHg
same,PAP (absolute values),[6],25.5 mmHg and 30.6 mmHg and 24.6 mmHg
same,% changes vs. baseline on PAP,"time 210 min, sesquihydrate",61.0% and 80.7% and 59.4%
same,BP (absolute values),time 210 min,99 mmHg
same,BP (absolute values),[7],117 mmHg and 116 mmHg
same,PAP (absolute values),[7],25.0 mmHg and 30.8 mmHg and 24.2 mmHg
same,% changes vs. baseline on PAP,"time 220 min, sesquihydrate",59.5% and 86.3% and 57.8%
same,BP (absolute values),time 220 min,97 mmHg
same,BP (absolute values),[8],123 mmHg and 114 mmHg
same,PAP (absolute values),[8],24.3 mmHg and 32.9 mmHg and 23.6 mmHg
same,% changes vs. baseline on PAP,"time 230 min, sesquihydrate",58.6% and 82.6% and 57.8%
same,BP (absolute values),time 230 min,97 mmHg
same,BP (absolute values),[9],119 mmHg and 114 mmHg
same,PAP (absolute values),[9],24.0 mmHg and 31.5 mmHg and 23.6 mmHg
same,% changes vs. baseline on PAP,"time 240 min, sesquihydrate",59.3% and 81.5% and 57.6%
same,BP (absolute values),time 240 min,97 mmHg
same,BP (absolute values),[10],119 mmHg and 112 mmHg
same,PAP (absolute values),[10],24.3 mmHg and 31.0 mmHg and 23.5 mmHg
same,% changes vs. baseline on PAP,"time 250 min, sesquihydrate",59.3% and 82.2% and 56.1%
same,BP (absolute values),time 250 min,97 mmHg
same,BP (absolute values),[11],118 mmHg and 111 mmHg
same,PAP (absolute values),[11],24.2 mmHg and 31.3 mmHg and 22.9 mmHg
same,% changes vs. baseline on PAP,"time 260 min, sesquihydrate",58.8% and 82.7% and 57.6%
same,BP (absolute values),time 260 min,96 mmHg
same,BP (absolute values),[12],116 mmHg and 112 mmHg
same,PAP (absolute values),[12],24.0 mmHg and 31.5 mmHg and 23.5 mmHg
same,% changes vs. baseline on PAP,"time 270 min, sesquihydrate",59.9% and 78.3% and 55.4%
same,BP (absolute values),time 270 min,99 mmHg
same,BP (absolute values),[13],115 mmHg and 109 mmHg
same,PAP (absolute values),[13],24.5 mmHg and 29.8 mmHg and 22.6 mmHg
same,% changes vs. baseline on PAP,"time 280 min, sesquihydrate",58.4% and 78.3% and 55.9%
same,BP (absolute values),[14],97 mmHg and 111 mmHg and 110 mmHg
same,PAP (absolute values),[14],23.9 mmHg and 29.8 mmHg and 22.8 mmHg
same,% changes vs. baseline on PAP,"time 290 min, sesquihydrate",57.4% and 79.6% and 53.9%
same,BP (absolute values),[15],97 mmHg and 110 mmHg and 107 mmHg
same,PAP (absolute values),[15],23.5 mmHg and 30.3 mmHg and 22.0 mmHg
same,% changes vs. baseline on PAP,"time 300 min, sesquihydrate",60.1% and 78.7% and 54.5%
same,BP (absolute values),time 300 min,98 mmHg
same,BP (absolute values),[16],109 mmHg and 108 mmHg
same,PAP (absolute values),[16],24.6 mmHg and 30.0 mmHg and 22.2 mmHg
same,% changes vs. baseline on PAP,"time 310 min, sesquihydrate",58.4% and 77.6% and 53.7%
same,BP (absolute values),time 310 min,97 mmHg
same,BP (absolute values),[17],109 mmHg and 105 mmHg
same,PAP (absolute values),[17],23.9 mmHg and 29.6 mmHg and 21.9 mmHg
same,% changes vs. baseline on PAP,"time 320 min, sesquihydrate",61.8% and 76.3% and 55.1%
same,% changes vs. baseline on PAP,"time 330 min, sesquihydrate",61.3% and 74.8% and 53.0%
same,BP (absolute values),"time not given, 1st row after 310 min",94 mmHg
same,BP (absolute values),[18],108 mmHg and 105 mmHg
same,PAP (absolute values),[18],25.3 mmHg and 29.1 mmHg and 22.5 mmHg
same,BP (absolute values),"time not given, 2nd row after 310 min",97 mmHg
same,BP (absolute values),[19],108 mmHg and 105 mmHg
same,PAP (absolute values),[19],25.1 mmHg and 28.5 mmHg and 21.6 mmHg
same,BP (mean),"time −10 min, 375 μg/kg i.t.",99 mmHg
same,BP (mean),[20],107 mmHg and 119 mmHg
same,PAP(mean),[20],42.0 mmHg and 36.4 mmHg and 37.5 mmHg
